In patent US20180030091A1, “COLLAGEN-BINDING SYNTHETIC PEPTIDOGLYCANS FOR USE IN VASCULAR INTERVENTION” (Purdue Research Foundation, priority 2010, published 2018):
Where no end group is shown, it is not given here. The star is where a group is joined. Dansyl = CN(C)c1cccc2c(S(=O)(=O)*)cccc12

Legend:
[1] = tested on: Human platelet-rich plasma on fibrillar collagen; experiment: Platelet binding to collagen under flow; format: cell-based; details: 50 μM for 15 min; 2 mL/hr for 1 hour, shear rate 355 s^−1
Experimental: To mimic physiologic conditions with flowing blood, platelet binding to collagen surfaces under flow conditions was evaluated. Flow kits were obtained from Ibidi (Munchen, Germany). Each channel was coated with fibrillar collagen (Chronolog). Excess collagen was removed from the flow channel by pushing 1×PBS through the channel with a syringe. DS-SILY18 was incubated in the channel at a concentration of 50 μM for 15 min at 37° C., and unbound peptidoglycan was rinsed by pushing 1×PBS through the channel with a syringe. The control channel consisted of collagen not treated with peptidoglycan.
Platelet rich plasma was pushed through the channels at 2 mL/hr for 1 hour, corresponding to a shear stress of 3.55 dynes/cm^2 and a shear rate of 355 s^−1. Unbound platelets were rinsed from the channel by pushing through 1×PBS. Adhered platelets were fixed in the channel with 10% formaldehyde. Platelets were permeabilized and actin filaments were stained with phalloidin-Alexa Fluor 488 (Invitrogen).

[2] = tested on: Human platelets on Type I fibrillar collagen; experiment: Inhibition of platelet activation on fibrillar collagen after 24 hour rinse (PF4, NAP2); format: cell-based; details: 50 μM, incubated 15 min, rinsed for 24 hours
Experimental: Type I fibrillar collagen from Chronolog was diluted in isotonic glucose to a concentration of 50 μg/mL. 50 μL of collagen solution was added to each well of a high bind 96-well plate. The plate was incubated overnight at 4° C., and then rinsed 3× with 1×PBS. For microplate assays, peptidoglycan was diluted in 1×PBS at concentrations between 0.0001 μM to 100 μM and 50 μL solution was added to the collagen coated wells. DS, peptide, or 1×PBS were also added to collagen coated wells as controls. Treatments were incubated at 37° C. with shaking at 200 rpm for 15 min. Wells were then rinsed of unbound treatment by removing the treatment solution, adding PBS, and shaking the wells for 24 hours. During the 24 hours, PBS solution was changed 3 times.
Human whole blood was collected from healthy volunteers by venipuncture. The first 5 mL of blood was discarded and approximately 20 mL was then collected into citrated glass vacutainers (BD Bioscience). Blood was centrifuged in the glass tube for 20 min at 200 g at 25° C. The top layer of the centrifuged blood, the platelet rich plasma (PRP), was used for platelet experiments.
PRP (50 μL/well) was added to the microplate for 1 hour at room temperature without shaking. After 1 hour of incubation, 45 μL of PRP was removed from each well and added to a microcentrifuge tube containing […] ETP (107 mM EDTA, 12 mM theophylline, and 2.8 mM prostaglandin E1) to inhibit further platelet activation. These tubes were spun at 4° C. for 30 min at 2000 g to pellet the platelets. The supernatant (platelet serum) was collected for ELISA studies to test for the presence of platelet activation markers PF-4 and NAP2. Sandwich ELISAs were utilized in order to detect each protein. The components for both sandwich ELISAs were purchased from R&D Systems and the provided protocols were followed. Platelet serum was diluted 10,000 times in 1% BSA in 1×PBS for values to fall within a linear range.
Platelet activation was measured through release of platelet factor 4 (PF4) and β-thromboglobulin (NAP2). […] Since the high SILY/DS ratio is expected to provide higher binding affinity to the collagen surface due to multiple interactions, peptidoglycans with the higher SILY/DS ratios were prepared.
The number of peptides per DS molecule was further increased to 18 to create the peptidoglycan DS-SILY18, and the concentration of molecule needed to inhibit platelet activation was tested. […] Within solubility limits, the number of peptides can be increased to achieve maximal platelet inhibition as well as to reduce diffusion over time, where a higher level of peptidoglycans on the denuded vessel wall is sustained.

[3] = tested on: HCA SMCs; experiment: Elastin measurement by Fastin assay; format: cell-based, Human; details: gels cultured for 10 days
Experimental: Collagen gels seeded with HCA SMCs were prepared as described in EXAMPLE 25. Differentiation medium was changed every three days and gels were cultured for 10 days. Collagen gels containing no cells were used as a control. Gels were rinsed in 1×PBS overnight to remove serum protein, and gels were tested for elastin content using the Fastin elastin assay per manufacturers protocol (Biocolor, County […].). Briefly, gels were solubilized in 0.25 M oxalic acid by incubating at 100° C. for 1 hr. Elastin was precipitated and samples were then centrifuged at 11,000×g for 10 min. The solubilized collagen supernatant was removed and the elastin pellet was stained by Fastin Dye Reagent for 90 min at room temperature. Samples were centrifuged at 11,000×g for 10 min and unbound dye in the supernatant was removed. Dye from the elastin pellets was released by the Fastin Dye Dissociation Reagent, and 100 μL samples were transferred to a 96-well plate (Costar). Absorbance was measured at 513 nm, and elastin content was calculated from an α-elastin standard curve.

[4] = target: T1, collagen (Bos taurus, UniProt P02453+P02465); experiment: Collagen fibrillogenesis by turbidity at 313 nm; format: biochemical; details: 4 mg/mL collagen, 10:1 collagen:treatment unless otherwise indicated
T1 construct: purchased Inamed, Freemont, Calif; (Nutragen)
Experimental: Collagen fibrillogenesis was monitored by measuring turbidity related absorbance at 313 nm providing information on rate of fibrillogenesis and fibril diameter. Gel solutions were prepared as described in EXAMPLE 15 (4 mg/mL collagen, 10:1 collagen:treatment, unless otherwise indicated) and 50 uL/well were added at 4° C. to a 384-well plate. The plate was kept at 4° C. for 4 hours before initiating fibril formation. A SpectraMax M5 at 37° C. was used to measure absorbance at 313 nm at 30 s intervals for 6 hours.
A fibrillogenesis assay as described for DS-SILY, EXAMPLE 17, performed with the conjugate DS-Dc13.

[5] = target: T1, collagen; experiment: Cryo-SEM measurement of fibril density; details: 10:1 molar ratio, cryo-SEM 10,000×
Experimental: Collagen gels were formed in the presence of each additive at a 10:1 molar ratio, as described in EXAMPLE 15, directly on the SEM stage, processed, and imaged as described. Images at 10,000× were analyzed for fibril density calculations. Images were converted to 8-bit black and white, and threshold values for each image were determined using ImageJ software (NIH). The threshold was defined as the value where all visible fibrils are white, and all void space is black. The ratio of white to black area was calculated using MatLab software. All measurements were taken in triplicate and thresholds were determined by an observer blinded to the treatment.

[6] = target: T2, Monomeric collagen (Bos taurus, UniProt P02453+P02465); experiment: Fluorescence binding of dansyl-labeled DS-peptide conjugates to immobilized collagen; details: 100 μM to 10 nM; 30 min at 37° C.
T2 construct: purchased Advanced Biomatrix 5010
Experimental: In order to determine whether the peptide conjugate maintained its ability to bind to collagen after its conjugation to DS, a fluorescent binding assay was performed. A fluorescently labeled version of SILY, Z-SILY, was synthesized by adding dansylglycine to the amine terminus. This peptide was conjugated to DS and purified using the same methods described for SILY.
Binding assays were done in a 96-well high binding plate, black with a clear bottom (Costar). Collagen was compared to untreated wells and BSA coated wells. Monomeric collagen (Advanced Biomatrix Cat. No. 5010) and BSA were immobilized at 37° C. for 1 hr by incubating 90 μL/well at concentrations of 2 mg/mL in 10 mM HCl and 1×PBS respectively. Each well was washed 3× with 1×PBS after incubating.
Wells were preincubated with DS at 37° C. for 30 min to eliminate nonspecific binding of DS to collagen. Wells were rinsed 3× with 1×PBS before incubating with DS-Z-SILY. […] Fluorescence readings were taken on an M5 Spectramax Spectrophotometer (Molecular Devices) at excitation/emission wavelengths of 335 nm/490 nm, respectively.
Fluorescence binding of DS-Z-SILY on immobilized collagen, BSA, and untreated wells are compared in FIG. 7. […]
The fluorescence binding assays described for DS-ZSILY was performed with peptide sequence ZSYIRIADTNITGC (ZDc13) (SEQ ID NO: 30).

[7] = tested on: Human coronary artery smooth muscle cells (HCA SMC); experiment: Gel compaction by smooth muscle cells in collagen gels; format: cell-based; details: Day 7
Experimental: Human coronary artery smooth muscle cells (HCA SMC) (Cascade Biologics) were cultured in growth medium (Medium 231 supplemented with smooth muscle growth factor). Cells from passage 3 were used for all experiments. Differentiation medium (Medium 231 supplemented with 1% FBS and 1×pen/strep) was used for all experiments unless otherwise noted.
Collagen gels were prepared with each additive as described with the exception that the 1×PBS sample addition was omitted to accommodate the addition of cells in media. After incubating on ice for 30 min, HCA SMCs in differentiation medium were added to the gel solutions to a final concentration of 1×10^6 cells/mL. Gels were formed in quadruplicate in 48-well non-tissue culture treated plates (Costar) for 6 hrs before adding 500 μL/well differentiation medium. Gels were freed from the well edges after 24 hrs. Medium was changed every 2-3 days and images for compaction were taken at the same time points using a Gel Doc System (Bio-Rad). The cross-sectional area of circular gels correlating to degree of compaction was determined using ImageJ software (NIH). Gels containing no cells were used as a negative control and cells in collagen gels absent additive were used as a positive control. By day 10 all gels had compacted to approximately 10% of the original gel area, and differences between additives were small.

[8] = target: T1, collagen; experiment: Viscoelastic characterization of collagen gels containing Dc13 or DS-Dc13; details: varying ratios of collagen to additive
Experimental: Collagen gels were prepared, as in EXAMPLE 15. Viscoelastic characterization was performed as described in EXAMPLE 16 on gels formed with varying ratios of collagen to additive (treatment).

T1 sequence (P02453 162-1217 limits assumed): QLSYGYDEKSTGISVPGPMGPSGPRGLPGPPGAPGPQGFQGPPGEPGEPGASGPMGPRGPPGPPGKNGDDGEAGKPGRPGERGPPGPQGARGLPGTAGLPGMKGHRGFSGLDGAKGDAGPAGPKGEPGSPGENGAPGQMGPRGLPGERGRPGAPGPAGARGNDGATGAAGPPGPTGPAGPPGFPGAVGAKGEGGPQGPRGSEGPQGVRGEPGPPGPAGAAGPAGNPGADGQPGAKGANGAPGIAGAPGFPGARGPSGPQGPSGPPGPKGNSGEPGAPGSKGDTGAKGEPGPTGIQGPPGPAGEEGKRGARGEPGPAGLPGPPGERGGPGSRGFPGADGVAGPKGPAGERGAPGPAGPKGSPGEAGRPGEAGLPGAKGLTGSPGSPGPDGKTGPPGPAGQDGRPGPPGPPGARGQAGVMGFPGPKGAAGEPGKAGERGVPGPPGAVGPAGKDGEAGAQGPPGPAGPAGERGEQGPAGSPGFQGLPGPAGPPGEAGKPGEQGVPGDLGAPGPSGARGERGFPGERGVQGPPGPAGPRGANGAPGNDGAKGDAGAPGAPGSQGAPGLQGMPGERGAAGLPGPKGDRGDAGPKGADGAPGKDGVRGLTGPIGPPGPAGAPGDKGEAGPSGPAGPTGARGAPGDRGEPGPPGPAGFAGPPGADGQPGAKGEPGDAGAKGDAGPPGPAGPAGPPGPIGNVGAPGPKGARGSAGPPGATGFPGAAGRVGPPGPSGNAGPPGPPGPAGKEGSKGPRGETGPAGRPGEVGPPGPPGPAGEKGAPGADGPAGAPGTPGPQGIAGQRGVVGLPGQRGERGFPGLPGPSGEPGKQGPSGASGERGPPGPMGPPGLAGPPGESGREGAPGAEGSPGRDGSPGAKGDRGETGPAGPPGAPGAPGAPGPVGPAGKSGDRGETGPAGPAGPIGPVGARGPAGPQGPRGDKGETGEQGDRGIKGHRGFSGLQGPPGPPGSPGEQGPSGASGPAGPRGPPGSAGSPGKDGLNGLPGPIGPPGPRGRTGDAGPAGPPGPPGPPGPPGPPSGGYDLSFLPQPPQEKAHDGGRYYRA
T1 sequence (P02465 80-1117 limits assumed): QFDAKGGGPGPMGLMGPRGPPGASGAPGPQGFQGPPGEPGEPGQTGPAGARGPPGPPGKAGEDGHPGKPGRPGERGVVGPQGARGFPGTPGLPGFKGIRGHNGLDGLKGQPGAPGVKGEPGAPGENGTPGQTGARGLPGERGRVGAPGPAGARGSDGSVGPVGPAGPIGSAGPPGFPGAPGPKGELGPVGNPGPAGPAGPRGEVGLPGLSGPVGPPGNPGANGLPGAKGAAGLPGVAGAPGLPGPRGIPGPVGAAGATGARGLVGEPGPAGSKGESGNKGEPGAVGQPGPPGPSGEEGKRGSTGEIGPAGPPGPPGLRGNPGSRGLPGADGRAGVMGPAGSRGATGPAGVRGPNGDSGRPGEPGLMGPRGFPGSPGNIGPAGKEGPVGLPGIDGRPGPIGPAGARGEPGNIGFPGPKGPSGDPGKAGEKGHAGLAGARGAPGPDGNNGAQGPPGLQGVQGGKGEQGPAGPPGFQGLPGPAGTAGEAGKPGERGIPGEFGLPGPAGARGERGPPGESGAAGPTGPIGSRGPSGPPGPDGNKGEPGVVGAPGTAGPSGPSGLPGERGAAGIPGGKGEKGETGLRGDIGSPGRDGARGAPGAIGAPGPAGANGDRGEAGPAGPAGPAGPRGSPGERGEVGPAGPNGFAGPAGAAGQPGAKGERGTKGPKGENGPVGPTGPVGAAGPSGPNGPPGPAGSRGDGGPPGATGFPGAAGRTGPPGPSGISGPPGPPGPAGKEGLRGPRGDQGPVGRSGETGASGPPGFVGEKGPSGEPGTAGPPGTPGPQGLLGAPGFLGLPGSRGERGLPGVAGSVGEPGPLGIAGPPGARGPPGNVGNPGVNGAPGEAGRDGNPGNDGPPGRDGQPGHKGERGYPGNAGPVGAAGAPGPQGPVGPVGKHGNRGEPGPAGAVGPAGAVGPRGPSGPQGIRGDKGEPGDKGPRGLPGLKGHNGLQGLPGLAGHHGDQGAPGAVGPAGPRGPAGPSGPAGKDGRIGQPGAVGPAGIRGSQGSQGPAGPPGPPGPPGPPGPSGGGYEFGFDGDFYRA
T2 sequence (P02453 162-1217 limits assumed): as the sequence (P02453 162-1217 limits assumed) above
T2 sequence (P02465 80-1117 limits assumed): as the sequence (P02465 80-1117 limits assumed) above

Row | Substance | platelets bound to collagen under flow [1] | inhibition of platelet activation (release of PF4 and NAP2) [2] | elastin production [3] | fibrillogenesis (absorbance at 313 nm) [4] | fibril density (ratio of fibril containing area to void space) [5] | fluorescence binding to collagen versus BSA and untreated wells [6] | gel compaction, day 7 [7] | stiffness (storage modulus G′) of collagen gel [8]
1 | DS-SILY: dermatan sulfate-RRANAALKAGELYKSILYGC conjugate; SILY/DS ratio 1.06 in Example 2, varied ratios in Example 36 (RRANAALKAGELYKSILYGC-NH2; not fully specified (residue 20); also: dermatan sulfate conjugate, SILY/DS ratio 1.06 or varied) | significantly fewer bound platelets on the peptidoglycan treated surface | able to inhibit collagen mediated platelet activation | significantly increased elastin production over all samples | decreases the rate of fibrillogenesis | significantly greater fibril density | – | – | –
2 | DS-Z-SILY: dermatan sulfate conjugated to Z-SILY (Dansyl-GRRANAALKAGELYKSILYGC-NH2; also: dermatan sulfate conjugate) | – | – | – | – | – | binds specifically to the collagen-treated wells over BSA and untreated wells | – | –
3 | dermatan sulfate [DS] | – | little to no effect on inhibiting platelet activation | significantly decreased elastin production over untreated collagen | – | – | – | significant compared to collagen | increase the stiffness of the resulting collagen gel over untreated collagen
